Test results: ChEMBL document CHEMBL5244223, “l,8-Naphthalimide based DNA intercalators and anticancer agents. A systematic review from 2007 to 2017” (Eur J Med Chem, 2018)

How the values were obtained:
Clupea harengus = experiment: Binding affinity to Atlantic herring DNA assessed as binding constant by fluorescence based EtBr-UV absorption spectral analysis
HepG2 = experiment: Cytotoxicity against human HepG2 cells assessed as inhibition of cell growth incubated for 48 hrs by MTT assay; format: functional, cell-based; settings: HepG2, 48 h
SMMC-7721 [1] = experiment: Cytotoxicity against human SMMC-7721 cells assessed as inhibition of cell growth incubated for 48 hrs by MTT assay; format: functional, cell-based; settings: SMMC-7721, 48 h
HCT-116 [2] = experiment: Cytotoxicity against human HCT-116 cells assessed as inhibition of cell growth incubated for 48 hrs by MTT assay; format: functional, cell-based; settings: HCT-116, 48 h
K562 = experiment: Cytotoxicity against human K562 cells assessed as inhibition of cell growth incubated for 48 hrs by MTT assay; format: functional, cell-based; settings: K562, 48 h
HCT-15 = experiment: Cytotoxicity against human HCT-15 cells assessed as inhibition of cell growth incubated for 24 hrs by sulforhodamine B assay; format: functional, cell-based; settings: HCT-15, 24 h
Calf thymus DNA [3] = experiment: Binding affinity to calf thymus DNA assessed as binding constant by fluorescence based EtBr-displacement based UV-Vis spectroscopic analysis; format: nucleic-acid assay; settings: Bos taurus
HCT-116 [4] = experiment: Cytotoxicity against human HCT-116 cells assessed as inhibition of cell growth incubated for 72 hrs by MTT assay; format: functional, cell-based; settings: HCT-116, 72 h
MCF7 [5] = experiment: Antiproliferative activity against human MCF7 cells assessed as inhibition of cell proliferation incubated for 24 hrs by MTT assay; format: functional, cell-based; settings: MCF7, 24 h
L02 = experiment: Antiproliferative activity against human HL7702 cells assessed as inhibition of cell proliferation incubated for 24 hrs by MTT assay; format: functional, cell-based; settings: L02, 24 h
BGC-823 = experiment: Antiproliferative activity against human BGC-823 cells assessed as inhibition of cell proliferation incubated for 24 hrs by MTT assay; format: functional, cell-based; settings: BGC-823, 24 h
Jurkat = experiment: Antiproliferative activity against human Jurkat cells assessed as inhibition of cell proliferation incubated for 72 hrs by MTT assay; format: functional, cell-based
Pseudomonas aeruginosa = experiment: Antibacterial activity against Pseudomonas aeruginosa assessed as inhibition of bacterial growth incubated for 24 hrs by two-fold serial dilution assay; format: functional
Escherichia coli = experiment: Antibacterial activity against Escherichia coli JM109 assessed as inhibition of bacterial growth incubated for 24 hrs by two-fold serial dilution assay; format: functional
Staphylococcus aureus [6] = experiment: Antibacterial activity against methicillin-resistant Staphylococcus aureus N315 assessed as inhibition of bacterial growth incubated for 24 hrs by two-fold serial dilution assay; format: functional
Staphylococcus aureus [7] = experiment: Antibacterial activity against Staphylococcus aureus ATCC25923 assessed as inhibition of bacterial growth incubated for 24 hrs by two-fold serial dilution assay; format: functional
Micrococcus luteus = experiment: Antibacterial activity against Micrococcus luteus assessed as inhibition of bacterial growth incubated for 24 hrs by two-fold serial dilution assay; format: functional
Proteus = experiment: Antibacterial activity against Proteus ATCC13315 assessed as inhibition of bacterial growth incubated for 24 hrs by two-fold serial dilution assay; format: functional
Bacillus subtilis = experiment: Antibacterial activity against Bacillus subtilis ATCC6633 assessed as inhibition of bacterial growth incubated for 24 hrs by two-fold serial dilution assay; format: functional
Salmonella typhi = experiment: Antibacterial activity against Salmonella enterica subsp. enterica serovar Typhi assessed as inhibition of bacterial growth incubated for 24 hrs by two-fold serial dilution assay; format: functional
HeLa [8] = experiment: Antiproliferative activity against human HeLa cells assessed as inhibition of cell proliferation incubated for 48 hrs by MTT assay; format: functional, cell-based
SMMC-7721 [9] = experiment: Antiproliferative activity against human SMMC-7721 cells assessed as inhibition of cell proliferation incubated for 48 hrs by MTT assay; format: functional, cell-based; settings: SMMC-7721, 48 h
MCF7 [10] = experiment: Antiproliferative activity against human MCF7 cells assessed as inhibition of cell proliferation incubated for 48 hrs by MTT assay; format: functional, cell-based; settings: MCF7, 48 h
HeLa [11] = experiment: Cytotoxicity against human HeLa cells assessed as inhibition of cell growth by MTT assay; format: functional, cell-based
Calf thymus DNA [12] = experiment: Binding affinity to calf thymus DNA assessed as DNA intercalation by measuring change in melting temperature by thermal denaturation assay; format: nucleic-acid assay; settings: Bos taurus

NCCCCNCCCCN1C(=O)c2cccc3cccc(c23)C1=O
Kb (Clupea harengus): 1.15 10^4/M

COC(=O)c1ccc2c3c(cccc13)C(=O)N(CCN(C)C)C2=O
IC50 (HepG2): 13700 nM | IC50 (SMMC-7721 [1]): 13700 nM | IC50 (HCT-116 [2]): 13700 nM | IC50 (K562): 13700 nM

O=C1c2cccc3cccc(c23)C(=O)N1CCCNCc1cccs1
IC50 (HCT-15): 2440 nM

Cc1ccc(-c2cc[n+]3c(c2)-c2cccc[n+]2CC3)cc1
K (Calf thymus DNA [3]): 2.8 10^6/M

O=C1c2cccc3cccc(c23)C(=O)N1CCCN(CCCN(CCCl)CCCl)CCCN1C(=O)c2cccc3cccc(c23)C1=O
IC50 (HCT-116 [4]): 350 nM

O=C1c2cccc3cccc(c23)C(=O)N1CCCN(CCCN1C(=O)c2cccc3cccc(c23)C1=O)CCN(CCO)CCO
IC50 (HCT-116 [4]): > 15000 nM

O=C1c2cccc3c2c(cc2[nH]c(-c4c[nH]c5ccccc45)nc23)C(=O)N1NCc1ccccc1
IC50 (MCF7 [5]): 700 nM | IC50 (L02): 700 nM | IC50 (BGC-823): 700 nM

O=C1c2cccc3cccc(c23)C(=O)N1CCCCNCc1ccccn1
IC50 (Jurkat): 5580 nM

O=C1c2cccc3c(Sc4nc5ccccc5n4Cc4ccc(F)cc4F)ccc(c23)C(=O)N1CCCCn1cncn1
MIC (Pseudomonas aeruginosa): > 512 µg/mL | MIC (Escherichia coli): > 512 µg/mL | MIC (Staphylococcus aureus [6]): > 512 µg/mL | MIC (Staphylococcus aureus [7]): > 512 µg/mL | MIC (Micrococcus luteus): > 512 µg/mL | MIC (Proteus): > 512 µg/mL | MIC (Bacillus subtilis): > 512 µg/mL | MIC (Salmonella typhi): > 512 µg/mL

O=C1c2cccc3cccc(c23)C(=O)N1CCCN(CCCN(CCO)CCO)CCCN1C(=O)c2cccc3cccc(c23)C1=O
IC50 (HCT-116 [4]): 820 nM

CN(C)CCCN1C(=O)c2cccc3c2c(cc2[nH]c(-c4c[nH]c5ccccc45)nc23)C1=O
IC50 (MCF7 [5]): 700 nM | IC50 (L02): 700 nM | IC50 (BGC-823): 700 nM

NCCCCN1C(=O)c2cccc3cccc(c23)C1=O
IC50 (HCT-15): 2440 nM

NCCNCCCCCN1C(=O)c2cccc3cccc(c23)C1=O
Kb (Clupea harengus): 1.15 10^4/M

O=C1c2cccc3c2c(cc2[nH]c(-c4c[nH]c5ccccc45)nc23)C(=O)N1Nc1ccccc1
IC50 (MCF7 [5]): 700 nM | IC50 (L02): 700 nM | IC50 (BGC-823): 700 nM

CN(C)CCN1C(=O)c2cccc3c2c(cc2[nH]c(-c4c[nH]c5ccccc45)nc23)C1=O
IC50 (MCF7 [5]): 700 nM | IC50 (L02): 700 nM | IC50 (BGC-823): 700 nM

O=C1c2cccc3cccc(c23)C(=O)N1CCCCCC/N=C/c1ccccn1
IC50 (Jurkat): 5580 nM

NCCCN1C(=O)c2cccc3cccc(c23)C1=O [NAPHTHALIMIDOPROPYLAMINE]
IC50 (HCT-15): 2440 nM

NCCCNCCCCN1C(=O)c2cccc3cccc(c23)C1=O
Kb (Clupea harengus): 1.15 10^4/M

O=C1c2cccc3c(Sc4nc5ccccc5n4Cc4ccc(Cl)cc4Cl)ccc(c23)C(=O)N1CCCCn1c[n+](Cc2ccccc2Cl)cn1
MIC (Pseudomonas aeruginosa): 2 µg/mL | MIC (Escherichia coli): 2 µg/mL | MIC (Staphylococcus aureus [6]): 2 µg/mL | MIC (Staphylococcus aureus [7]): 2 µg/mL | MIC (Micrococcus luteus): 2 µg/mL | MIC (Proteus): 2 µg/mL | MIC (Bacillus subtilis): 2 µg/mL | MIC (Salmonella typhi): 2 µg/mL

O=C1c2cccc3cc(-n4ccnn4)cc(c23)C(=O)N1CCN1CCNCC1
IC50 (HeLa [8]): 300 nM | IC50 (SMMC-7721 [9]): 300 nM | IC50 (MCF7 [10]): 300 nM

O=C1c2cccc3c(Sc4nc5ccccc5n4Cc4ccc(Cl)cc4)ccc(c23)C(=O)N1CCCCn1cncn1
MIC (Pseudomonas aeruginosa): > 512 µg/mL | MIC (Escherichia coli): > 512 µg/mL | MIC (Staphylococcus aureus [6]): > 512 µg/mL | MIC (Staphylococcus aureus [7]): > 512 µg/mL | MIC (Micrococcus luteus): > 512 µg/mL | MIC (Proteus): > 512 µg/mL | MIC (Bacillus subtilis): > 512 µg/mL | MIC (Salmonella typhi): > 512 µg/mL

CN(C)CCN1C(=O)c2cccc3c2c(cc2nc(C(F)(F)F)c(C(F)(F)F)nc23)C1=O
IC50 (HeLa [11]): 3800 nM

NCCN1C(=O)c2cccc3cccc(c23)C1=O
IC50 (HCT-15): 2440 nM

CCN(CC)CCN1C(=O)c2cccc3cc(-n4cc(-c5ccccc5)nn4)cc(c23)C1=O
IC50 (HeLa [8]): 300 nM | IC50 (SMMC-7721 [9]): 300 nM | IC50 (MCF7 [10]): 300 nM

CCOC(=O)c1ccc2c3c(cccc13)C(=O)N(CCN(C)C)C2=O
IC50 (HepG2): 13700 nM | IC50 (SMMC-7721 [1]): 13700 nM | IC50 (HCT-116 [2]): 13700 nM | IC50 (K562): 13700 nM

CCCCCOC(=O)c1ccc2c3c(cccc13)C(=O)N(CCN(C)C)C2=O
IC50 (HepG2): > 50000 nM | IC50 (SMMC-7721 [1]): > 50000 nM | IC50 (HCT-116 [2]): > 50000 nM | IC50 (K562): > 50000 nM

NCCNCCCCN1C(=O)c2cccc3cccc(c23)C1=O
Kb (Clupea harengus): 1.15 10^4/M

CN(C)CCN1C(=O)c2cccc3c2c(cc2nccnc23)C1=O
IC50 (HeLa [11]): 1900 nM | ΔTm (Calf thymus DNA [12]): 3.9 °C
